Data as given in US20170251662A1, “ALTERNATIVE DEVICE AND METHODS FOR APPLICATION OF 1-METHYLCYCLOPROPENE TO FRUIT” (AGROFRESH INC., priority 2016, published 2017).

Legend:
Assay type in all cases: in vivo
[1] = test system: Bartlett pears; experiment: Liquid 1-MCP drench treatment on pears; parameters: key to Firmness, statistical significance between control and treated bins of pears by layers / Ethylene Content, statistical significance between control and treated bins of pears by layers / Skin Color, statistical significance between control and treated bins of pears by layers: Lx: layers that contained fruit that were not statistically significantly different from control; All: fruit tested in all layers was statistically significantly different from control; None: no layers were identified that had statistical significance from control
Method: Bins of freshly harvested Bartlett pears were sprayed with 0 gal (control), 1.0 gal, 2.0 gal, or 3.0 gal of Harvista AFxRD038 formulation. The AFxRD038 liquid 1-methylcyclopropene (1-MCP) formulation was made of 3 gal of water, 36 g of AFxRD038, 113 ml of HiSupreme Spray Oil, and 5.63 ml of Silwett L-77 surfactant.
A CO2 backpack sprayer was used to apply the different volumes of 1-MCP treatment within an initial time period of a few days (e.g., about 2-3 days). The formulation was applied to bins containing a total of approximately 900 lbs of pears. Each bin comprised 7-9 layers depending on the size of the pears, with layer 1 being the top layer and layers 7-9 being the bottom layer. A control bin having 9 layers of pears was not sprayed with 1-MCP treatment.
The bins of pears were allowed to air dry outside, and were then stored in regular cold air (i.e., about 4° C.) for a second time period of about two days. The fruit was then moved to a controlled atmosphere storage having a temperature of 31° F. for a third time period of about 45 days. Upon removal of the fruit from storage in the bins, the fruit was then placed in a warm room having a temperature of about 68° F. for a fourth time period of about six days.
On the sixth day of the fourth time period of warm room exposure, each individual bin of fruit was sampled in a uniform fashion. Uniform sampling was performed by removing about 250 pears from the top of each bin, layer-by-layer. Each layer of about 250 fruit was stored in plastic bins for further analysis during a fifth time period. Day 6 evaluation occurred on the same day the layers were removed from the bin. Four days later (Day 10), another series of fruit layers were analyzed. Four more days later (Day 14), the last set of fruit from the bins were analyzed.
On days 6, 10, and 14, a subset of fruit from each layer of each bin was analyzed for firmness, ethylene content, and fruit skin color. Quality measurements were taken on an individual layer of fruit within each treated bin to establish the effectiveness and consistency of the treatments from top to bottom of each fruit bin (see FIGS. 3-5). For example, firmness of the pears was measured by peeling the pears, and measuring the middle pulp with an 8 mm tip.

[2] = test system: Cantaloupe melons; experiment: Comparative liquid 1-MCP spray treatment on melons, stored about 15 days
Method: This experiment was conducted to test the effect of 1-MCP spray treatment on Cantaloupe melons as compared to SmartFresh treatment. Bins containing 9 kilograms each of freshly harvested Cantaloupe melons were sprayed four times using a dual-liquid sprayer comprising the Harvista AFx701 formulation (see FIG. 10). Each spray of the AFx701 liquid 1-methylcyclopropene (1-MCP) formulation comprised 83.5 mg of AFx701 and 608 mg of water. Thus, a total amount of 1.67 mg of 1-MCP active ingredient and 2.43 g of water was applied to each bin of melons, which equates to 0.185 mg of 1-MCP per kg of melons. The 1-MCP treatment formulations were prepared and applied to […] using a sprayer, and compared to apples that had been treated with SmartFresh or no 1-MCP at all (control).
(§1) The bins of melons were allowed to air dry outside, and were then stored in regular cold air (i.e., about 36° F.) for a second time period of about 15 days. The melons were then moved to a regular atmosphere storage having a temperature of about 70° F. for a third time period of about 2, 4, or 6 more days. Upon removal of the fruit from storage in the bins, the fruit were then analyzed for firmness. Firmness of the melons was measured by cutting the melons in half, and measuring the middle pulp with an 8 mm tip.
Day 15 evaluation occurred on the same day the fruit were removed from storage in the bin. Two days later (Day 15+2), another series of fruit were analyzed. Two more days later (Day 15+4), an additional set of fruit were removed and analyzed. Finally, the last set of fruit from the bins was analyzed two days later (Day 15+6). Quality measurements were taken on individual melons randomly selected from different treated bins and different positions within each treated bin (e.g., the edge and/or the center of the bin) to establish the effectiveness and consistency of the treatments (see FIG. 11).

[3] = test system: Red Delicious apples; experiment: Liquid 1-MCP drench treatment on apples; parameters: key to Ethylene Content, statistical significance between control and treated bins of apples by layers: Lx: layers that contained fruit that were not statistically significantly different from control; All: fruit tested in all layers was statistically significantly different from control; None: no layers were identified that had statistical significance from control; details: for Firmness of apples compared with unsprayed control apples: most apples
Method: This experiment was conducted to test the effect of 1-MCP treatment on Red Delicious apples. This experiment was performed exactly as detailed above in Example 1 for Bartlett pears, but with a few noted exceptions described here. Specifically, Red Delicious apples were treated with a 1-MCP treatment comprising 31 g of AFxRD038. The apples were treated with 0.5 gal, 1.0 gal, and 2.0 gal volumes of the 1-MCP treatment, which were applied to bins of apples comprised in 9-10 layers depending on the size of the apples. A control bin having 10 layers of apples was not sprayed with 1-MCP treatment. The apples were stored for a third time period at room temperature for 33 days. The apples were analyzed for firmness and ethylene content at warm day 7 and 14 of the fifth time period.

[4] = test system: Cantaloupe melons; experiment: Comparative liquid 1-MCP spray treatment on melons, stored about 9 days
Method: as §1, with “This experiment was conducted to test the effect of 1-MCP spray treatment on Cantaloupe melons as compared to SmartFresh treatment. This experiment was performed exactly as detailed above in Example 1 for Bartlett pears, but with a few noted exceptions described here. The bins” for “The bins”, “of about 9 days. The” for “of about 15 days. The”

[5] = test system: Golden Delicious apples; experiment: Comparative analysis of 1-MCP treatments of apples applied with the wand device; details: for Fruit firmness of apples relative to SmartFresh and control apples: 65 days at about 1° C. + 7 days room temperature
Method: This experiment was conducted to test the effect of different application methods of 1-MCP treatment (i.e., Harvista AFx701) on Golden Delicious apples in bins. Apples were treated with two different formulations of the 1-MCP treatment, including a formulation comprising 1) 20 grams of 1-MCP and 2 liters of water, which was applied in 10 seconds and 2) 60 grams of 1-MCP and 6 liters of water, which was applied in 30 seconds. The 1-MCP treatment formulations were prepared and applied to apples using the wand device, and compared to apples that had been treated with SmartFresh or no 1-MCP at all (control).
Apples were stored for 65 days in cold air at about 1° C. temperature, prior to being stressed for 7 days at room temperature. Replicates of 25 fruit were sampled from each layer of each fruit bin to analyze fruit firmness (in pounds, lbs) and internal ethylene concentration (ppm). Data were analyzed on a whole bin basis using all replicates from each layer.

[6] = spray, 9 days cold storage, all days
[7] = Treatment 2: 60 grams of 1-MCP and 6 liters of water, 30 seconds, wand device

CC1=CC1 [1-MCP, 1-Methylcyclopropene]
Firmness of pears compared with unsprayed control fruit ([1]; 1 gal, 2 gal or 3 gal, layers 1-9, warm days 6, 10 and 14): significantly better firmness
Firmness, statistical significance between control and treated bins of pears by layers ([1]; WRD 6, 1 Gal): All
Skin Color, statistical significance between control and treated bins of pears by layers ([1]; WRD 6, 1 Gal): All
Firmness, statistical significance between control and treated bins of pears by layers ([1]; WRD 6, 2 Gal): All
Skin Color, statistical significance between control and treated bins of pears by layers ([1]; WRD 6, 2 Gal): All
Firmness, statistical significance between control and treated bins of pears by layers ([1]; WRD 6, 3 Gal): All
Skin Color, statistical significance between control and treated bins of pears by layers ([1]; WRD 6, 3 Gal): All
Ethylene Content, statistical significance between control and treated bins of pears by layers ([1]; WRD 10, 1 Gal): All
Firmness, statistical significance between control and treated bins of pears by layers ([1]; WRD 10, 1 Gal): All
Skin Color, statistical significance between control and treated bins of pears by layers ([1]; WRD 10, 1 Gal): All
Firmness, statistical significance between control and treated bins of pears by layers ([1]; WRD 10, 2 Gal): All
Skin Color, statistical significance between control and treated bins of pears by layers ([1]; WRD 10, 2 Gal): All
Firmness, statistical significance between control and treated bins of pears by layers ([1]; WRD 10, 3 Gal): All
Skin Color, statistical significance between control and treated bins of pears by layers ([1]; WRD 10, 3 Gal): All
Firmness, statistical significance between control and treated bins of pears by layers ([1]; WRD 14, 1 Gal): All
Skin Color, statistical significance between control and treated bins of pears by layers ([1]; WRD 14, 1 Gal): None
Firmness, statistical significance between control and treated bins of pears by layers ([1]; WRD 14, 2 Gal): All
Skin Color, statistical significance between control and treated bins of pears by layers ([1]; WRD 14, 2 Gal): None
Firmness, statistical significance between control and treated bins of pears by layers ([1]; WRD 14, 3 Gal): All
Skin Color, statistical significance between control and treated bins of pears by layers ([1]; WRD 14, 3 Gal): None
Control and/or inhibition of fruit ripening in pears ([1]; as little as 1 gal of 1-MCP treatment): effective to control and/or inhibit fruit ripening in pears
Fruit color of pears compared with unsprayed control fruit ([1]; layers 1-9, days 6 and 10): significantly less fruit color
Ethylene concentration of pears compared with unsprayed control fruit ([1]; layers 1-9, warm days 6, 10 and 14): significantly lower ethylene concentrations
Fruit skin color of pears compared with control ([1]; warm day 14): none of the layers showed a significant difference
Control and/or inhibition of fruit ripening in melons ([2]; 15 days cold storage): effective to control and/or inhibit fruit ripening in melons
Firmness of melons compared with control fruit ([2]; Day 15, 15+2, 15+4, 15+6 (all days)): significant differences from the control fruit
Firmness of melons compared with SmartFresh-treated melons ([2]; all days): relatively comparable to melons treated with SmartFresh
Ethylene Content, statistical significance between control and treated bins of apples by layers ([3]; WRD 7, 0.5 Gal): All
Ethylene Content, statistical significance between control and treated bins of apples by layers ([3]; WRD 7, 1 Gal): All
Ethylene Content, statistical significance between control and treated bins of apples by layers ([3]; WRD 7, 2 Gal): All
Ethylene Content, statistical significance between control and treated bins of apples by layers ([3]; WRD 14, 2 Gal): All
Control and/or inhibition of fruit ripening in apples ([3]; as little as 0.5 gal of 1-MCP treatment): effective to control and/or inhibit fruit ripening in apples
Firmness of apples compared with unsprayed control apples ([3]; day 14, except layers 2, 5, 8 and 10): significantly better firmness
Ethylene concentration of apples compared with unsprayed control apples ([3]; warm day 7, layers 1-10): significantly lower ethylene concentrations
Firmness of apples compared with unsprayed control apples ([3]; warm day 7, except layers 5, 8 and 9): significantly better firmness
Firmness of melons compared with SmartFresh-treated melons ([4]; Day 9+4): even higher
Control and/or inhibition of fruit ripening in melons ([4]; spray, 9 days cold storage): effective to control and/or inhibit fruit ripening in melons
Firmness of melons compared with SmartFresh-treated fruit [4, 6]: statistically the same as SmartFresh treated fruit
Firmness of melons compared with control [4, 6]: significant differences from the control
Control and/or inhibition of fruit ripening in apples ([5]; 1-MCP treatment applied with a wand device): effective to control and/or inhibit fruit ripening in apples
Fruit firmness of apples relative to SmartFresh and control apples ([5]; Treatment 1: 20 grams of 1-MCP and 2 liters of water, 10 seconds, wand device): highest
Internal ethylene concentration of apples compared with Treatment 1 or control [5, 7]: significantly less ethylene concentration
Fruit firmness of apples relative to SmartFresh and control apples [5, 7]: highest
